Test results: patent publication US20240208992A1, “MACROCYCLES AS CFTR MODULATORS” (Idorsia Pharmaceuticals Ltd, priority 2021, published 2024)

Target: human F508del-CFTR (Homo sapiens, UniProt P13569, DEL508-508)
Assay: F508del-CFTR cell surface expression (corrector activity), DiscoveRx ß-galactosidase complementation chemiluminescence assay in recombinant U2OS cell line;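 further: U2OS cells co-expressing ProLink-tagged F508del-CFTR and a membrane-anchored enzyme acceptor, where more surface CFTR restores β-galactosidase activity measured by chemiluminescence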
Conditions: for EC50: EC50, F508del-CFTR cell surface expression; for Emax: U2OS
[1] = U2OS cells, 16h compound incubation, geomean of several measurements
[2] = in relation to the Emax of the corrector lumacaftor (=100%), U2OS cells, 16h compound incubation, arithmetic mean
[3] = U2OS cells, 16h compound incubation, geomean values
[4] = in relation to Emax of corrector lumacaftor (=100%), arithmetic mean values
[5] = U2OS cell line, 16h compound incubation, geomean values
[6] = in relation to the Emax of the corrector lumacaftor (=100%), U2OS cell line, 16h compound incubation, arithmetic mean values

human F508del-CFTR, sequence (P13569 with tags, fused parts or gaps DEL508-508): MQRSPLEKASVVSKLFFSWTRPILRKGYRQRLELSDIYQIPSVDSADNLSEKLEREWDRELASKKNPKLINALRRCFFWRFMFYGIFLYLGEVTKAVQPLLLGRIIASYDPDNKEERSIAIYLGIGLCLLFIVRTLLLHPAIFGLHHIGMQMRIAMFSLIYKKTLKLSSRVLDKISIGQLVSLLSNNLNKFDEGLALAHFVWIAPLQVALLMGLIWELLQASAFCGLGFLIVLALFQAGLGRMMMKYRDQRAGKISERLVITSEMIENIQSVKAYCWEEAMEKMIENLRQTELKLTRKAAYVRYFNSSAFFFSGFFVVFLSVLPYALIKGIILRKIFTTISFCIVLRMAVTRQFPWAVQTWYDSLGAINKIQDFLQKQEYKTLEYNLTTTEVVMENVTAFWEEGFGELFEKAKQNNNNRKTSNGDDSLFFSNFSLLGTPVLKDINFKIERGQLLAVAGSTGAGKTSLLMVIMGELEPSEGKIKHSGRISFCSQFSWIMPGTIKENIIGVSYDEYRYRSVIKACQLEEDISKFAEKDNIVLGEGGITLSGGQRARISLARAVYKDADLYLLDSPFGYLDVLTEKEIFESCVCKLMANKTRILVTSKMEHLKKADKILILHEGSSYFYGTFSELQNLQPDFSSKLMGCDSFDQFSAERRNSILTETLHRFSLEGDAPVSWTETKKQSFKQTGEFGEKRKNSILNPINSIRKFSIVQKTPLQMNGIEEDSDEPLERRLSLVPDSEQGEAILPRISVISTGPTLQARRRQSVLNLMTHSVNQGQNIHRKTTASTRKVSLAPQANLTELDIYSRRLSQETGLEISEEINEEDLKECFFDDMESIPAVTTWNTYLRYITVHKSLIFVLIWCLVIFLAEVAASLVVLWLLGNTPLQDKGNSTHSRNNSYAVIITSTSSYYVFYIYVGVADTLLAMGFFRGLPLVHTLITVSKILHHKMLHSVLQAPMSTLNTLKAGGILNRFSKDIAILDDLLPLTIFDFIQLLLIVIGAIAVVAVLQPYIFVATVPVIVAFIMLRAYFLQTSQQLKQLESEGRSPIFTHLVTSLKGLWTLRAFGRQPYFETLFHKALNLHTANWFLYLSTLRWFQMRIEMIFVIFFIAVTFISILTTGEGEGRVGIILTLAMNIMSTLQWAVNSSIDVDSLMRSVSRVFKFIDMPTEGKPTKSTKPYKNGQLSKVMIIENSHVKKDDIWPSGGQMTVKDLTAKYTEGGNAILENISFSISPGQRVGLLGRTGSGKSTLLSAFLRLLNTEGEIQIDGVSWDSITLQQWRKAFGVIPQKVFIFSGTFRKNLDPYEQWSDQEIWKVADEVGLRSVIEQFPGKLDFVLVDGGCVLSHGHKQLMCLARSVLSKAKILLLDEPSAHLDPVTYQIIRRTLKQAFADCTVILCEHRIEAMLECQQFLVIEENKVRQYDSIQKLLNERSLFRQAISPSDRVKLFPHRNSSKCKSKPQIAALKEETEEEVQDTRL

Compound | EC50 [3] [nM] | Emax [4] [%] | EC50 [5] [nM] | other results
COc1cc(CCNC(=O)[C@@H]2CC(=O)N(C)[C@@H](CC(C)C)C(=O)N(C)[C@H](CC(F)(F)F)C(=O)N[C@H](Cc3ccccc3)COc3ccc4cnc(C)cc4c3C(=O)N2)on1 [Example 957, (3S,7S,10R,13R)-13-benzyl-7-isobutyl-N-(2-(3-methoxyisoxazol-5-yl)ethyl)-6,9,20-trimethyl-1,5,8,11-tetraoxo-10-(2,2,2-trifluoroethyl)-1,2,3,4,5,6,7,8,9,10,11,12,13,14-tetradecahydro-[1]oxa[4,7,10,14]tetraazacycloheptadecino[16,17-f]isoquinoline-3-carboxamide] | – | – | – | EC50 [1]: 192 nM; Emax [2]: 451%
COc1cccc(CCNC(=O)[C@@H]2CC(=O)N(C)[C@@H](CC(C)C)C(=O)N(CCC3CCCCC3)CC(=O)N[C@H](Cc3ccccc3)COc3cc(OC)c(OC)cc3C(=O)N2)c1 [Example 586, (3R,9S,13S)-3-benzyl-7-(2-cyclohexylethyl)-9-isobutyl-17,18-dimethoxy-N-(3-methoxyphenethyl)-10-methyl-5,8,11,15-tetraoxo-2,3,4,5,6,7,8,9,10,11,12,13,14,15-tetradecahydrobenzo[p][1]oxa[4,7,10,14]tetraazacycloheptadecine-13-carboxamide] | 221 | 165 | – | –
COc1nc(C)cc2c1C(=O)N[C@H](C(=O)NCCc1cc(C)no1)CC(=O)N(C)[C@@H](CC(C)C)C(=O)N(C)[C@H](C(C)(C)C)C(=O)N[C@H](Cc1ccccc1)CO2 [Example 866, (3R,6R,9S,13S)-3-benzyl-6-(tert-butyl)-9-isobutyl-16-methoxy-7,10,18-trimethyl-N-(2-(3-methylisoxazol-5-yl)ethyl)-5,8,11,15-tetraoxo-2,3,4,5,6,7,8,9,10,11,12,13,14,15-tetradecahydropyrido[3,4-p][1]oxa[4,7,10,14]tetraazacycloheptadecine-13-carboxamide] | – | – | – | EC50 [1]: 337 nM; Emax [2]: 324%
COc1cccc2c1C(=O)N[C@H](C(=O)NCCc1ccc3c(c1)OCCCO3)CC(=O)N(C)[C@@H](CC(C)C)C(=O)N(CCC1CCCCC1)CC(=O)N[C@H](Cc1ccccc1)CO2 (mixture of isomers) [Example 12, (3R,9S,13RS)-3-benzyl-7-(2-cyclohexylethyl)-N-(2-(3,4-dihydro-2H-benzo[b][1,4]dioxepin-7-yl)ethyl)-9-isobutyl-16-methoxy-10-methyl-5,8,11,15-tetraoxo-2,3,4,5,6,7,8,9,10,11,12,13,14,15-tetradecahydrobenzo[p][1]oxa[4,7,10,14]tetraazacycloheptadecine-13-carboxamide] | – | – | 270 | –
CC(C)C[C@H]1C(=O)N2CCCC[C@H]2C(=O)N[C@H](Cc2ccccc2)COc2ccc3ncc(F)cc3c2C(=O)N[C@H](C(=O)NCCn2ncc(C3CC3)n2)CC(=O)N1C [Example 779, (9S,13S,19aS,22R)-22-benzyl-N-(2-(4-cyclopropyl-2H-1,2,3-triazol-2-yl)ethyl)-5-fluoro-13-isobutyl-12-methyl-7,11,14,20-tetraoxo-7,8,9,10,11,12,13,14,17,18,19,19a,20,21,22,23-hexadecahydro-16H-pyrido[2′,11:6,7][1]oxa[4,7,10,14]tetraazacycloheptadecino[16,17-f]quinoline-9-carboxamide] | 811 | 213 | – | –
COc1cc(CCNC(=O)[C@@H]2CC(=O)N(C)[C@@H](CC(C)C)C(=O)N(C)C3(CC3)C(=O)N[C@H](Cc3ccccc3)COc3cnc4ccccc4c3C(=O)N2)cc(OC)c1 [Example 109, (3′S,7′S,13′R)-13′-benzyl-N-(3,5-dimethoxyphenethyl)-7′-isobutyl-6′,9′-dimethyl-1′,5′,8′,11′-tetraoxo-2′,3′,4′,5′,6′,7′,8′,9′,11′,12′,13′,14′-dodecahydro-1′H-spiro[cyclopropane-1,10′-[1]oxa[4,7,10,14]tetraazacycloheptadecino[17,16-c]quinoline]-3′-carboxamide] | – | – | 231 | Emax [6]: 321%
COc1cccc(CCNC(=O)[C@@H]2CC(=O)N(C)[C@@H](CC(C)C)C(=O)N(C)CC(=O)N[C@H](Cc3ccccc3)COc3ccc4cc(C)oc4c3C(=O)N2)c1 [Example 531, (8R,14S,18S)-8-benzyl-14-isobutyl-N-(3-methoxyphenethyl)-2,12,15-trimethyl-10,13,16,20-tetraoxo-7,8,9,10,11,12,13,14,15,16,17,18,19,20-tetradecahydrobenzofuro[7,6-p][1]oxa[4,7,10,14]tetraazacycloheptadecine-18-carboxamide] | 265 | 336 | – | –
Cc1nc2ccc3c(c2o1)C(=O)N[C@H](C(=O)NCCc1cccc(OC(F)F)c1)CC(=O)N(C)[C@@H](CC(C)C)C(=O)N1CCN(C2CC2)C[C@@H]1C(=O)N[C@H](Cc1ccccc1)CO3 [Example 419, (8S,12S,18aR,21R)-21-benzyl-17-cyclopropyl-N-(3-(difluoromethoxy)phenethyl)-12-isobutyl-4,11-dimethyl-6,10,13,19-tetraoxo-6,7,8,9,10,11,12,13,16,17,18,18a,19,20,21,22-hexadecahydro-15H-oxazolo[4′,5′:5,6]benzo[1,2-p]pyrazino[2,1-f][1]oxa[4,7,10,14]tetraazacycloheptadecine-8-carboxamide] | 358 | 243 | – | –
COc1cccc(CCNC(=O)[C@@H]2CC(=O)N(C)[C@@H](CC(C)C)C(=O)N3CCOC[C@@H]3C(=O)N[C@H](Cc3ccccc3)COc3ccc(OC)cc3C(=O)N2)c1 [Example 588, (7S,11S,20R,22aR)-20-benzyl-7-isobutyl-15-methoxy-N-(3-methoxyphenethyl)-8-methyl-6,9,13,22-tetraoxo-1,3,4,6,7,8,9,10,11,12,13,19,20,21,22,22a-hexadecahydrobenzo[p][1,4]oxazino[3,4-f][1]oxa[4,7,10,14]tetraazacycloheptadecine-11-carboxamide] | 650 | 102 | – | –
CC(C)C[C@H]1C(=O)N(C)CC(=O)N[C@H](Cc2ccccc2)COc2ccc3c(c2C(=O)N[C@H](C(=O)NCCc2ccc4c(c2)OCO4)CC(=O)N1C)OCO3 [Example 321, (8R,14S,18S)-N-(2-(benzo[d][1,3]dioxol-5-yl)ethyl)-8-benzyl-14-isobutyl-12,15-dimethyl-10,13,16,20-tetraoxo-7,8,9,10,11,12,13,14,15,16,17,18,19,20-tetradecahydro-[1,3]dioxolo[4′,5′:5,6]benzo[1,2-p][1]oxa[4,7,10,14]tetraazacycloheptadecine-18-carboxamide] | – | – | 816 | Emax [6]: 266%
COc1ccc(CCNC(=O)[C@@H]2CC(=O)N(C)[C@@H](CC(C)C)C(=O)N(C)CC(=O)N[C@H](Cc3ccccc3)COc3cc(OC)c(OC)cc3C(=O)N2)cc1 [Example 193, (3R,9S,13S)-3-benzyl-9-isobutyl-17,18-dimethoxy-N-(4-methoxyphenethyl)-7,10-dimethyl-5,8,11,15-tetraoxo-2,3,4,5,6,7,8,9,10,11,12,13,14,15-tetradecahydrobenzo[p][1]oxa[4,7,10,14]tetraazacycloheptadecine-13-carboxamide] | – | – | 521 | Emax [6]: 118%
